Square brackets hold non-standard residues; d marks the D form. Peptide text beside a SMILES is read from it.
How the values were obtained:
Rat H-4-II-E Cells = assay: Cell proliferation, BrdU incorporation; type: cell-based; details: peptide 10 μM, 18-20 hours, relative to 0.1% DMSO control
Procedure: The effect of the peptides on cell proliferation can be assessed using an assay of BrdU incorporation in cultured cells. Peptides were initially prepared as 10 mM stock in DMSO and tested at a final concentration of 10 μM (0.1% DMSO). BrdU Cell Proliferation Assay kit was purchased from Cell Signaling Technology. H-4-II-E rat liver hepatoma cell line was purchased from American Type Culture Collection (Manassas, Va.). H-4-II-E cells were grown in DMEM supplemented with 10% FBS with 100 IU/ml penicillin and 100 μg/ml streptomycin. Cultures were maintained at 37° C. in a humidified atmosphere of 5% CO2/95% air. H-4-II-E cells were seeded at 20,000 cells per well on 96-well plates. The next day cells were incubated with test peptides at 10 μM in 0.1% DMSO and maintained at 37° C. in a humidified atmosphere of 5% CO2/95% air for 18-20 hours. Cell proliferation was determined using a BrdU Cell Proliferation Assay kit (Cell Signaling Technology) according to the manufacturer's instructions. Absorption for each sample well on the plate was measured using a Cytation 3 plate reader at 450 nm (BioTek, Winooski, Vt.). Activity was calculated relative to 0.1% DMSO untreated control.

[1] = tested on: SH-SY5Y Neuroblastoma Cells; assay: ATP levels (CellTiter-Glo); type: cell-based, human; details: peptide 10 μM, 18-20 hours, relative to 0.1% DMSO treated control
Procedure: The effect of the peptides on cellular metabolism can be assessed using an assay of ATP levels in cultured cells such as human neuroblastoma cells. Peptides were initially prepared as 10 mM stock in DMSO and used at a final concentration of 10 μM (0.1% DMSO). […] CellTiter-Glo® Assay kit was purchased from Promega. SH-SY5Y human bone marrow neuroblastoma cell line was purchased from American Type Culture Collection (Manassas, Va.) and licensed from Memorial Sloan-Kettering Cancer Center (New York, N.Y.). SH-SY5Y cells were grown in DMEM/F12 medium supplemented with 10% FBS with 100 IU/ml penicillin and 100 μg/ml streptomycin. Cultures were maintained at 37° C. in a humidified atmosphere of 5% CO2/95% air. SH-SY5Y cells were seeded at 30,000 cells per well on 96-well plates. […] ATP levels were determined using a CellTiter-Glo Assay kit (Promega) according to the manufacturer's instructions. Luminescence for each sample well on the plate was measured using a Cytation 3 plate reader (BioTek, Winooski, Vt.). Activity was calculated relative to 0.1% DMSO treated control. The relative standard deviation of the result for the 0.1% DMSO treated control was <5%.

Jurkat cells = assay: CXCL12 mediated cell migration, Jurkat cells; type: cell-based, human; details: 1.1 μM test article, 100 ng/ml CXCL12, 1 hour
Procedure, shortened: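 Jurkat cells in serum-free RPMI with 0.5% BSA, 250,000 per upper chamber of a 5 μm Transwell, with peptides at 1.1 μM final. Migration toward CXCL12 ran 1 h at 37 °C in 5% CO2. Cells reaching the lower chamber quantified by ATP luminescence (CellTiter-Glo 2.0).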

[2] = tested on: SH-SY5Y Neuroblastoma Cells; assay: ATP levels in cells exposed to staurosporine; type: cell-based, human; details: peptide 10 μM plus staurosporine, 18-20 hours; <100% cytoprotective, >100% synergistic
Procedure: Peptides were initially prepared as 10 mM stock in DMSO and tested at a final concentration of 10 μM (0.1% DMSO).
[…] CellTiter-Glo® Assay kit was purchased from Promega. SH-SY5Y human neuroblastoma cell line was purchased from American Type Culture Collection (Manassas, Va.) and licensed from Memorial Sloan-Kettering Cancer Center (New York, N.Y.). SH-SY5Y cells were grown in DMEM/F12 medium supplemented with 10% FBS with 100 IU/ml penicillin and 100 μg/ml streptomycin. Cultures were maintained at 37° C. in a humidified atmosphere of 5% CO2/95% air. SH-SY5Y cells were seeded at 30,000 cells per well on 96-well plates. […] ATP levels were determined using a CellTiter-Glo Assay kit (Promega) according to the manufacturer's instructions. Luminescence for each sample well on the plate was measured using a Cytation 3 plate reader (BioTek, Winooski, Vt.). […] A value less than 100% is indicative of a cytoprotective effect, while a value greater than 100% is indicative of a synergistic effect on viability.

U937 cells = assay: CXCL12 mediated cell migration, U937 cells; type: cell-based, human; details: peptides at 10 μM (also stated 1 μM), 100 nM CXCL12, 4 hours
Procedure: Peptides were initially prepared as 1 mM stock in H2O and tested at a final concentration of 1 μM. […] U937 cells were resuspended in serum free media containing 0.5% bovine serum albumin (RPMI+GlutaMax (Gibco/Thermo Fisher Scientific, Gaithersburg, Md.)) at density of 5×10^6 cells/ml. […] Following the 4 hour incubation period the filter inserts were carefully removed and the migration of cells across the filter into the bottom chamber (receiver wells) was determined by measuring ATP levels using Cell TiterGlo 2.0, according to manufacturer's instructions (Promega, Madison, Wis.); luminescence measured using a Cytation 3 plate reader (BioTek, Winooski, Vt.).

SMILES	BrdU Incorporation, Percent of Control (Rat H-4-II-E Cells) [%]	ATP Levels, % Control [1] [%]	Percent Inhibition of CXCL12 Mediated Migration (1.1 μM Test Article) (Jurkat cells) [%]	Percent of ATP Reduction Induced by Control [2] [%]	Percent Inhibition of CXCL12 Mediated Migration (U937 cells) [%]
CSCC[C@H](N)C(=O)N[C@@H](CC(C)C)C(=O)N[C@@H](CCCNC(=N)N)C(=O)N[C@@H](CCCNC(=N)N)C(=O)N[C@@H](Cc1ccc(O)cc1)C(=O)N[C@@H](Cc1c[nH]cn1)C(=O)N[C@@H](Cc1c[nH]cn1)C(=O)N[C@@H](CO)C(=O)N[C@H](C(=O)N[C@@H](CCCNC(=N)N)C(=O)N[C@@H](CO)C(=O)N[C@@H](CO)C(=O)N[C@@H](CC(C)C)C(=O)N[C@@H](CCCNC(=N)N)C(=O)N1CCC[C@H]1C(=O)N[C@@H](Cc1ccc(O)cc1)C(=O)N[C@H](C(=O)N[C@@H](CCCCN)C(=O)O)[C@@H](C)O)C(C)C [compound 2] (H-MLRRYHHSVRSSLRPYTK-OH; N-terminus and C-terminus assumed)	123.6	100.1	4	84.5	58
CC(C)C[C@H](NC(=O)[C@H](CO)NC(=O)[C@H](CO)NC(=O)[C@H](CCCNC(=N)N)NC(=O)[C@@H](NC(=O)[C@H](CO)NC(=O)[C@H](Cc1c[nH]cn1)NC(=O)[C@H](Cc1c[nH]cn1)NC(=O)[C@H](Cc1ccc(O)cc1)NC(=O)[C@H](CCCNC(=N)N)NC(=O)[C@H](CCCNC(=N)N)NC(=O)[C@@H](N)CC(C)C)C(C)C)C(=O)N[C@@H](CCCNC(=N)N)C(=O)N1CCC[C@H]1C(=O)N[C@@H](Cc1ccc(O)cc1)C(=O)N[C@H](C(=O)N[C@@H](CCCCN)C(=O)O)[C@@H](C)O [compound 3] (H-LRRYHHSVRSSLRPYTK-OH; N-terminus and C-terminus assumed)	130.3	102.5	66	84.9	101
CC(C)C[C@H](NC(=O)[C@H](CO)NC(=O)[C@H](CO)NC(=O)[C@H](CCCNC(=N)N)NC(=O)[C@@H](NC(=O)[C@H](CO)NC(=O)[C@H](Cc1c[nH]cn1)NC(=O)[C@H](Cc1c[nH]cn1)NC(=O)[C@H](Cc1ccc(O)cc1)NC(=O)[C@H](CCCNC(=N)N)NC(=O)[C@H](CCC(=O)O)NC(=O)[C@@H](N)CC(C)C)C(C)C)C(=O)N[C@@H](CCCNC(=N)N)C(=O)N1CCC[C@H]1C(=O)N[C@@H](Cc1ccc(O)cc1)C(=O)N[C@H](C(=O)N[C@@H](CCCCN)C(=O)O)[C@@H](C)O [compound 4] (H-LERYHHSVRSSLRPYTK-OH; N-terminus and C-terminus assumed)	114.4	98.5	77	77.1	98
CC(C)C[C@H](NC(=O)[C@H](CO)NC(=O)[C@H](CO)NC(=O)[C@H](CCCNC(=N)N)NC(=O)[C@@H](C)NC(=O)[C@H](CO)NC(=O)[C@H](Cc1c[nH]cn1)NC(=O)[C@H](Cc1c[nH]cn1)NC(=O)[C@H](Cc1ccc(O)cc1)NC(=O)[C@H](CCCNC(=N)N)NC(=O)[C@H](CCC(=O)O)NC(=O)[C@@H](N)CC(C)C)C(=O)N[C@@H](CCCNC(=N)N)C(=O)N1CCC[C@H]1C(=O)N[C@@H](Cc1ccc(O)cc1)C(=O)N[C@H](C(=O)O)[C@@H](C)O [compound 5] (H-LERYHHS[dA]RSSLRPYT-OH; N-terminus and C-terminus assumed)	131.1	97.0	46	80.0	86
